Laboratory results from article PMC10222839, “Development of Novel Small-Molecule Activators of Pyruvate Kinase Muscle Isozyme 2, PKM2, to Reduce Photoreceptor Apoptosis” (Pharmaceuticals, 2023).
≈ marks a conversion by molar mass, not a printed value.

Columns and labels:
661W cells = assay: Cell viability of 661W cells (RealTime-Glo MT); assay type: cell-based; details: for cell viability: in presence of FasL, 48 h, versus vehicle
Description: (§1) To be confident the pyridazinoindolone core could be utilized in future medicinal chemistry efforts, its photoreceptor neuroprotective effect was assessed. […] Fas signaling has a critical role in caspase activation and photoreceptor apoptosis after experimental retinal detachment. 661W cells die via caspase-mediated mechanisms, and the Fas-ligand (FasL) treatment of these cells leads to the activation of caspases and subsequent death, analogous to the in vivo experimental retinal detachment model. Furthermore, similar to photoreceptors, 661W cells express PKM2 (Figure 4a), and these cells have been used to garner information on the role of metabolism in photoreceptor degeneration. As such, this is a suitable in vitro model of photoreceptor stress that can be utilized to assess the consequences of reprogramming metabolism by pharmacologically activating PKM2 [9]. 661W cells were treated with FasL and either compound 2 or vehicle (DMSO).
A luminescent assay kit (RealTime-Glo MT Cell Viability Assay, Promega, Madison, WI, USA, Cat No. G9711) was utilized to assess cell viability. As above, 661W cells were seeded in 96-well plates (Nunc, Rochester, NY, USA) at 2500 cells/well 1 day before treatment. The 661w cells were also pre-treated with compound 2 or DMSO for 2 h before adding 500 ng/mL FasL and 250 ng/mL HA. Viability was measured 48 h after the addition of these latter reagents. As with the caspase assays, luminescence was monitored via a plate reader luminometer (BMG Labtech, Inc., Cary, NC, USA).

[1] = Aqueous solubility (Eurofins Panlabs, HPLC-UV/Vis); assay type: physicochemical; details: aqueous buffer, kinetic from dmso stock; PBS, pH 7.4, 24 h, room temperature (Table 1)
Description: In brief, each compound was tested at a concentration of 200 μM in PBS, pH 7.4, and room temperature. […] The area of the principal peak in a calibration standard for each compound (200 μM) in organic solvent (60/40 v/v% methanol: water) was compared to the area of the corresponding peak in the PBS sample [42]. Compounds 16–21 underwent solubility testing at Analiza (Cleveland, OH, USA), a contract research organization. Five hundred microliters of PBS, pH 7.4 was added to each amount of compound provided. The samples were vortexed briefly and then placed on a rotary shaker at 200 RPM for 24 h at ambient temperature. Thereafter, the samples were vacuum filtered through a 0.45-micron membrane, and the filtrates were injected into a nitrogen detector for quantification. The nitrogen detector was calibrated using standards, and the filtrates were quantitated based on the calibration curve.

human recombinant PKM2 = target: T1, human recombinant PKM2 (Homo sapiens, UniProt P14618); assay: Pyruvate kinase enzyme-coupled (LDH/NADH) assay with recombinant PKM2; assay type: biochemical
T1 construct: purchased Sigma SAE0021
T1 sequence (P14618 whole entry): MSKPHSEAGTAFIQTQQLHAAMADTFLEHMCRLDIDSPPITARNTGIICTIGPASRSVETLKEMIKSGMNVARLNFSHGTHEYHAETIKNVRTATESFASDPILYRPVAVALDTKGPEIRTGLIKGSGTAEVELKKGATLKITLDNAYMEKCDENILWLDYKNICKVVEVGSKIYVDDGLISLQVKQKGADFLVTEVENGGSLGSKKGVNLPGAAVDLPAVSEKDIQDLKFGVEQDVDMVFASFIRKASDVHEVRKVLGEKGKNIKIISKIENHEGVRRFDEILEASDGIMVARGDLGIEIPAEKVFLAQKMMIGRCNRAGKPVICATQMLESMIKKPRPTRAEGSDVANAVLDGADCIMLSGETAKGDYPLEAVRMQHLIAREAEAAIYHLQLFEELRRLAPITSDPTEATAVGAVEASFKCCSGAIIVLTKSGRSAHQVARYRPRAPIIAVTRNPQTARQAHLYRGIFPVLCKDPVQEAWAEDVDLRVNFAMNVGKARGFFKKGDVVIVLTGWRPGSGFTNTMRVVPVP
Description: Recombinant Enzyme. An enzyme-coupled assay that measures the depletion of NADH via absorbance at 340 nm and uses lactate dehydrogenase (LDH) was employed to determine the activity of pyruvate kinase (PK). To determine the AC50 (concentration of activator necessary to achieve half-maximal activation) of the different small molecules with PKM2, assays were conducted in a 96-well format using 200 μL/well assay volume with 10 nM human recombinant PKM2 (Sigma, St. Louis, MO, USA, Cat No. SAE0021) or PKM1 (Sigma, […], Cat No. SRP0415), differing concentrations of activator, 0.5 mM PEP, 1 mM ADP, 0.2 mM NADH, and 8 U of LDH in a buffer of 50 mM Tris-HCl (pH 7.4), 100 mM KCl, and 5 mM MgCl2 as previously described. A SPECTROstar Omega plate reader (BMG LABTECH Inc., Cary, NC, USA) monitored absorbance at 340 nm. The MARS software suite was utilized to determine initial velocities. Data were normalized to DMSO (dimethyl sulfoxide)-treated enzyme activity, as previously described.

[2] = system: caspase 8 activation in 661W cells; assay: Caspase 8 activity assay in 661W cells (Caspase-Glo 8); assay type: cell-based
Description: as §1
(§2) Caspase 8 and caspase 3/7 activity was measured using luminescent assay kits (Caspase-Glo 8 and 3/7 Assay Systems, Promega, Madison, WI, USA, Cat Nos. G8200 and G8090, respectively). […] As previously published, caspase activity was measured 8 h after treatment by incubating cells with substrate for 1 h as per the manufacturer’s instructions. A plate reader luminometer (BMG Labtech, Inc., Cary, NC, USA) assessed luminescence.

[3] = system: caspase 3 and 7 activation in 661W cells; assay: Caspase 3/7 activity assay in 661W cells (Caspase-Glo 3/7); assay type: cell-based
Description: as §1, §2

[4] = no FasL, concentration near AC50 or more than 10-fold greater

solubility at 24 h [1]: 99.8 µM (≈ 36.6 µg/mL)
AC50 (human recombinant PKM2; recombinant human PKM2, n = 3, best-fit value ± std. error): 0.05 ± 0.012 µM
Emax (human recombinant PKM2; recombinant human PKM2, n = 3, normalized to DMSO-treated enzyme, read-out: Recombinant PKM2 Max Activation): 292 ± 20%
caspase 8 activity, compound alone [2, 4]: no significant effect
caspase 3 and 7 activity, compound alone [3, 4]: no significant effect
SMILES: Cn1c2cc([S+](C)[O-])ccc2c2cnn(Cc3cccc(N)c3)c(=O)c21 (stereo not shown) [Compound 2]
cell viability (661W cells; 200 nM): significantly improved
cell viability (661W cells; 2 μM): trended towards improved cell viability
cell viability, compound alone (661W cells; [4]): no significant effect
caspase 8 activation ([2]; in presence of 500 ng/mL FasL, all concentrations tested, 8 h, versus DMSO): significantly decreased
caspase 3 and 7 activation ([3]; in presence of 500 ng/mL FasL, highest concentration tested, 8 h, versus DMSO): significantly decreased
